pIC50: −log10 of the molar value.
Tests used:
[1] = biological target: T1, Thromboxane-A synthase (Homo sapiens, UniProt P24557); experiment: Compound was tested for the ability to inhibit human platelets microsomal Thromboxane A2 synthase
T1 sequence (P24557 whole entry): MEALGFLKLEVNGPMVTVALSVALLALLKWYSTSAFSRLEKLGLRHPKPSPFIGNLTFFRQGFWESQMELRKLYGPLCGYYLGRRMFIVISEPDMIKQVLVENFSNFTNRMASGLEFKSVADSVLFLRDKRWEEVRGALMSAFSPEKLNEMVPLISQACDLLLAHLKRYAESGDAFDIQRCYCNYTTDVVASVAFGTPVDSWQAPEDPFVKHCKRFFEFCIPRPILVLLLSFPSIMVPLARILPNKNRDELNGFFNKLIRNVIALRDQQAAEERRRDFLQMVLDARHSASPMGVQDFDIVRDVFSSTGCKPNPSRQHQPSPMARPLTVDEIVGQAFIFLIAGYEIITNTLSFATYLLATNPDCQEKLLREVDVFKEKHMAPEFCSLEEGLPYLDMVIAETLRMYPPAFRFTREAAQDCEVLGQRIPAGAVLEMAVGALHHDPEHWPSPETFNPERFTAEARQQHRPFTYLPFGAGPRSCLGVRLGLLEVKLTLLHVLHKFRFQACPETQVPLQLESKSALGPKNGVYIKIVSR

[2] = biological target: T2, Thromboxane A2 receptor (Rattus norvegicus, UniProt P34978); experiment: Compound was tested in vitro for Thromboxane A2 receptor antagonism by inhibiting contraction of rat aorta induced by the stable thromboxane agonist U-46,619; […]; format: functional, tissue-based; details: read-out: pA2 (converted)
T2 sequence (P34978 whole entry): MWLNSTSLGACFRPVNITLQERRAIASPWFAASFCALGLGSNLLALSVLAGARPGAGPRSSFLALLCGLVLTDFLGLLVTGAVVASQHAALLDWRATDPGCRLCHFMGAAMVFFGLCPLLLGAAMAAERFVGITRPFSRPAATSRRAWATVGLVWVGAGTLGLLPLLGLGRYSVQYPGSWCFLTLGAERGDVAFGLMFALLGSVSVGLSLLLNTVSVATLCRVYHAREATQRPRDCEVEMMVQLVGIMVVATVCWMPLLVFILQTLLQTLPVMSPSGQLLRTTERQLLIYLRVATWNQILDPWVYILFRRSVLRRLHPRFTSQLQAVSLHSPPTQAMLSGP

[3] = biological target: T2, Thromboxane A2 receptor; experiment: Compound was tested in vitro for Thromboxane A2 receptor antagonism by inhibiting contraction of rat aorta induced by the stable thromboxane agonist U-46,619; format: functional, tissue-based; details: read-out: pA2 (converted)
[4] = biological target: T2, Thromboxane A2 receptor; experiment: Compound was tested in vitro for thromboxane A2 receptor antagonism by inhibiting contraction of rat aorta induced by the stable thromboxane agonist U-46,619; format: functional, tissue-based; details: read-out: pA2 (converted)
[5] = biological target: T3, Thromboxane-A synthase (Homo sapiens) (UniProt P24557); experiment: Compound was tested for the ability to inhibit human platelets microsomal Thromboxane A2 synthase at 1 uM concentration
T3 sequence (whole entry): T1 sequence (P24557 whole entry)

| Structure (SMILES) | pIC50 [1] | Kb [2] [nM] | Kb [3] [nM] | Kb [4] [nM] | inhibition [5] [%] |
| --- | --- | --- | --- | --- | --- |
| Cc1c(Cn2ccnc2)n(CCCCNS(=O)(=O)c2ccc(F)cc2)c2ccc(C(=O)O)cc12 | 7.41 | > 1000 |  |  |  |
| O=C(O)COc1ccc(CCNS(=O)(=O)c2ccccc2)cc1 [SULOTROBAN] |  |  | 81.3 |  |  |
| Cc1[nH]c2ccc(CCC(=O)O)cc2c1Cc1ccncc1 | 7.66 |  |  | 60.3 |  |
| Cc1c(Cn2ccnc2)n(CCNS(=O)(=O)c2ccc(F)cc2)c2ccc(CCC(=O)O)cc12 | 6.87 |  | 138 |  |  |
| Cc1c(Cn2ccnc2)n(CCCNS(=O)(=O)c2ccc(F)cc2)c2ccc(C(=O)O)cc12 | 7.82 | > 1000 |  |  |  |

Continued, values first:

| pIC50 [1] | Kb [2] [nM] | Kb [3] [nM] | Kb [4] [nM] | inhibition [5] [%] | Structure (SMILES) |
| --- | --- | --- | --- | --- | --- |
| 7.11 |  | 0.0741 |  |  | Cc1c(Cc2ccncc2)c2cc(CCC(=O)O)ccc2n1CCNS(=O)(=O)c1ccc(F)cc1 |
| 7.70 | > 1000 |  |  |  | Cc1c(Cn2ccnc2)n(CCNS(=O)(=O)c2ccc(F)cc2)c2ccc(C(=O)O)cc12 |
| 7.21 |  | 0.692 |  |  | Cc1c(Cc2cccnc2)c2cc(CCC(=O)O)ccc2n1CCNS(=O)(=O)c1ccc(F)cc1 |
|  |  |  | 7.59 | 42 | O=C(O)CCc1ccc2c(c1)c(Cc1ccncc1)cn2CCNS(=O)(=O)c1ccc(F)cc1 |
| 7.41 |  | 1.58 |  |  | Cc1c(Cn2ccnc2)c2cc(CCC(=O)O)ccc2n1CCNS(=O)(=O)c1ccc(F)cc1 |
|  |  | 2.51 |  |  | Cc1c(C)n(CCNS(=O)(=O)c2ccc(F)cc2)c2ccc(CCC(=O)O)cc12 |

— ChEMBL document CHEMBL1128103, “Thromboxane modulating agents. 1. Design of 1-[(arylsulfonyl)amino] alkylindole derivatives as dual thromboxane synthase inhibitor/thromboxane receptor antagonists” (Bioorg Med Chem Lett, 1995)
